Experimental findings from patent publication US10023544B2, “Heterocyclic compound” (Takeda Pharmaceutical Company Limited, priority 2014, dated 2018) are described below.

Structures can show the parent of a compound that is named as a salt.

In one assay the target is T1, Human recombinant enteropeptidase (Homo sapiens, UniProt P98073).
T1 construct: purchased ITSI-Biosciences, LLC #REN-260
T1 sequence (P98073 whole entry): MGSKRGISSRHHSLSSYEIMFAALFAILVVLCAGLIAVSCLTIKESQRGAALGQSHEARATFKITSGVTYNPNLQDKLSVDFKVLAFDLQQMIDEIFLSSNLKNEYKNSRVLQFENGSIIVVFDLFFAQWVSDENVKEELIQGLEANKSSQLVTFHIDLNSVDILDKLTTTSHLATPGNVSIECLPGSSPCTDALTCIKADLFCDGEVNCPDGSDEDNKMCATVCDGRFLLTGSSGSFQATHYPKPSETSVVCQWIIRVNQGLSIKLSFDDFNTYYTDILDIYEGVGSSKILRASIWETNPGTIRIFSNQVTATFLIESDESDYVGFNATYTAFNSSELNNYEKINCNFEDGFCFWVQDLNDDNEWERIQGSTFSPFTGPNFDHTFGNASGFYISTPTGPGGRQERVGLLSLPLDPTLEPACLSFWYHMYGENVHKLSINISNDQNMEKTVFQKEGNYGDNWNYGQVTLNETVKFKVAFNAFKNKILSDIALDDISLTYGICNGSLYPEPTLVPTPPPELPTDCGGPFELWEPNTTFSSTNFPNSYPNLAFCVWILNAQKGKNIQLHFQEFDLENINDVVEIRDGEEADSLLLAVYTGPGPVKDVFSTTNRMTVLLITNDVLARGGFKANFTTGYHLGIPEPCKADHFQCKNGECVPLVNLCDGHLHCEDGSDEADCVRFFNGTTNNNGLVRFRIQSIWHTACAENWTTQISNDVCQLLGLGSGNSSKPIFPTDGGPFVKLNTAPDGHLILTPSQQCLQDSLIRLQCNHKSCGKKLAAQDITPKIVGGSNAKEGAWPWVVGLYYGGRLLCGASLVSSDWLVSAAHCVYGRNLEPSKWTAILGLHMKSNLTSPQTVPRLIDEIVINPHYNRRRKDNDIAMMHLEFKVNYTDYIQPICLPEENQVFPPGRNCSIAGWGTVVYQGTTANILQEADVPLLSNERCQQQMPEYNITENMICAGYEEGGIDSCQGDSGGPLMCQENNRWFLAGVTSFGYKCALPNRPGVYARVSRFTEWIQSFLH
Put plainly: Human enteropeptidase inhibitory activity. It counts as biochemical. The conditions noted are these: 3.3 uM test compound; fluorescence intensity 2 hours after start of reaction; 3.3 µM. As for the experimental part:
Human recombinant enteropeptidase (#REN-260, ITSI-Biosciences, LLC) was diluted with an assay buffer (50 mM Tricine (pH 8.0), 0.01 (w/v) % Tween 20, 10 mM CaCl2) to prepare a 24 mU/mL enzyme solution. Subsequently, 5FAM-Abu-Gly-Asp-Asp-Asp-Lys-Ile-Val-Gly-Gly-Lys(CPQ2)-Lys-Lys-NH2 (purity: 97.2%, CPC Scientific, Inc.) produced according to a synthesis method known per se was diluted with an assay buffer to prepare a 2.1 uM (“u” represents “micro”) substrate solution. Each test compound was dissolved in DMSO to prepare a 1 mM solution, which was then diluted 100-fold with an assay buffer to prepare a compound solution. The compound solution (5 uL/well) and the substrate solution (5 uL/well) were added to a 384-well black plate (#784076, Greiner Bio-One) and mixed. Then, the enzyme solution (5 uL/well) was added to the plate and mixed to start reaction. The fluorescence intensity was measured at an excitation wavelength of 485 nm and a fluorescence wavelength of 535 nm using a fluorescence plate reader EnVision (PerkinElmer Inc.). Also, the same reaction as above was performed except that the test compound was not added (test compound non-supplemented group). In addition, the same reaction as above was performed except that neither the test compound nor the enzyme was added (control group). The inhibition rate was calculated from the fluorescence intensity 2 hours after the start of the reaction according to the following equation: Inhibition rate (%)=(1−(Fluorescence intensity of the test compound supplemented group−Fluorescence intensity of the control group)/(Fluorescence intensity of the test compound non-supplemented group−Fluorescence intensity of the control group))×100
Consider `CC(C)(C)C1CCC(c2cc(OC(=O)c3ccc(NC(=N)N)cc3)cc(C3=NOC(CC(=O)O)(C(=O)O)C3)c2)CC1` (stereo not drawn) [Example 13, 3-(3-(4-tert-butylcyclohexyl)-5-((4-carbamimidamidobenzoyl)oxy)phenyl)-5-(carboxymethyl)-4,5-dihydro-1,2-oxazole-5-carboxylic acid (cis or trans form)], for which the “Inhibition rate at 3.3 uM (%)” value was 100%.

The same assay, now with this note: 3.3 uM test compound; fluorescence intensity 2 hours after start of reaction; read-out: Inhibition rate at 3.3 uM (%).
Broadly, the inhibition is the change of the read-out against control, counted positive when it falls. As to `N=C(N)Nc1ccc(C(=O)Oc2ccc(C3=NOC(CC(=O)O)(C(=O)O)C3)cc2)cc1` (stereo not drawn) [Example 2, 3-(4-((4-carba-mimidamidobenzoyl)oxy)phenyl)-5-(carboxymethyl)-4,5-dihydro-1,2-oxazole-5-carboxylic acid], the inhibition at 3.3 µM was determined as 101%.

`Cc1ccc(OC(=O)c2ccc(NC(=N)N)cc2)cc1C1=NOC(CC(=O)O)(C(=O)O)C1` (stereo not drawn) [Example 3, 3-(5-((4-Carbamimidamidobenzoyl)oxy)-2-methylphenyl)-5-(carboxymethyl)-4,5-dihydro-1,2-oxazole-5-carboxylic acid trifluoroacetate]: the inhibition at 3.3 µM came to 101%.

Take `N=C(N)Nc1ccc(C(=O)Oc2cccc(C3=NOC(CCC(=O)O)(CCC(=O)O)C3)c2)cc1` [Example 4, 3,3′-(3-(3-((4-carba-mimidamidobenzoyl)oxy)phenyl)-4,5-dihydro-1,2-oxazole-5,5-diyl)dipropanoic acid]: the inhibition at 3.3 µM was determined as 101%.

With `N=C(N)Nc1ccc(C(=O)Oc2cccc(C3=NOC(CC(=O)O)(CC(=O)O)C3)c2)cc1` [Example 6, 2,2′-(3-(3-((4-Carbamimidamidobenzoyl)oxy)phenyl)-4,5-dihydro-1,2-oxazole-5,5-diyl)diacetic acid], the inhibition at 3.3 µM came to 100%.

As for `N=C(N)Nc1ccc(C(=O)Oc2ccc(C3CCN(C(=O)CCC(=O)O)CC3)c(C3=NOC(CC(=O)O)(CC(=O)O)C3)c2)cc1` [Example 7, 4-(4-(2-(5,5-Bis(carboxymethyl)-4,5-dihydro-1,2-oxazol-3-yl)-4-((4-carbamimidamidobenzoyl)oxy)phenyl)piperidin-1-yl)-4-oxobutanoic acid trifluoroacetate], the inhibition at 3.3 µM came out at 101%.

As to `N=C(N)Nc1ccc(C(=O)Oc2ccc(C3CCCCC3)c(C3=NOC(CC(=O)O)(C(=O)O)C3)c2)cc1` (stereo not drawn) [Example 8, 3-(5-((4-Carbamimidamidobenzoyl)oxy)-2-cyclohexylphenyl)-5-(carboxymethyl)-4,5-dihydro-1,2-oxazole-5-carboxylic acid trifluoroacetate], the inhibition at 3.3 µM was determined as 101%.

As to `N=C(N)Nc1ccc(C(=O)Oc2ccc(-c3ccccc3)c(C3=NOC(CC(=O)O)(C(=O)O)C3)c2)cc1` (stereo not drawn) [Example 9, 3-(4-((4-carbamimidamidobenzoyl)oxy)biphenyl-2-yl)-5-(carboxymethyl)-4,5-dihydro-1,2-oxazole-5-carboxylic acid], the inhibition at 3.3 µM turned out to be 101%.

For the molecule `CC(C)(C)C1CCC(c2ccc(OC(=O)c3ccc(NC(=N)N)cc3)cc2C2=NOC(CC(=O)O)(C(=O)O)C2)CC1` (stereo not drawn) [Example 10, 3-(2-(4-tert-butylcyclohexyl)-5-((4-carbamimidamidobenzoyl)oxy)phenyl)-5-(carboxymethyl)-4,5-dihydro-1,2-oxazole-5-carboxylic acid], the inhibition at 3.3 µM is 101%.

For the molecule `Cc1cc(OC(=O)c2ccc(NC(=N)N)cc2)cc(C2=NOC(CC(=O)O)(C(=O)O)C2)c1` (stereo not drawn) [Example 11, 3-(3-((4-Carbamimidamidobenzoyl)oxy)-5-methylphenyl)-5-(carboxymethyl)-4,5-dihydro-1,2-oxazole-5-carboxylic acid trifluoroacetate], the inhibition at 3.3 µM amounted to 100%.

With `CC(C)(C)C1CCC(c2cc(OC(=O)c3ccc(NC(=N)N)cc3)cc(C3=NOC(CC(=O)O)(C(=O)O)C3)c2)CC1` (stereo not drawn) [Example 12, 3-(3-(4-tert-butylcyclohexyl)-5-((4-carbamimidamidobenzoyl)oxy)phenyl)-5-(carboxymethyl)-4,5-dihydro-1,2-oxazole-5-carboxylic acid (trans or cis form)], the inhibition at 3.3 µM was 101%.

Take `N=C(N)Nc1ccc(C(=O)Oc2cc(CCC(=O)O)cc(C3=NOC(CC(=O)O)(C(=O)O)C3)c2)cc1` (stereo not drawn) [Example 14, 3-(3-((4-Carbamimidamidobenzoyl)oxy)-5-(2-carboxyethyl)phenyl)-5-(carboxymethyl)-4,5-dihydro-1,2-oxazole-5-carboxylic acid trifluoroacetate]: the inhibition at 3.3 µM was 100%.

Consider `N=C(N)Nc1ccc(C(=O)Oc2ccc(CCC(=O)O)c(C3=NOC(CC(=O)O)(C(=O)O)C3)c2)cc1` (stereo not drawn) [Example 15, 3-(5-((4-carbamimidamidobenzoyl)oxy)-2-(2-carboxyethyl)phenyl)-5-(carboxymethyl)-4,5-dihydro-1,2-oxazole-5-carboxylic acid], for which the inhibition at 3.3 µM was determined as 101%.

Turning to `Cc1c(OC(=O)c2ccc(NC(=N)N)cc2)cccc1C1=NOC(CC(=O)O)(C(=O)O)C1` (stereo not drawn) [Example 16, 3-(3-((4-carbamimidamidobenzoyl)oxy)-2-methylphenyl)-5-(carboxymethyl)-4,5-dihydro-1,2-oxazole-5-carboxylic acid], the inhibition at 3.3 µM turned out to be 100%.

`Cc1ccc(C2=NOC(CC(=O)O)(C(=O)O)C2)cc1OC(=O)c1ccc(NC(=N)N)cc1` (stereo not drawn) [Example 17, 3-(3-((4-carbamimidamidobenzoyl)oxy)-4-methylphenyl)-5-(carboxymethyl)-4,5-dihydro-1,2-oxazole-5-carboxylic acid]: the inhibition at 3.3 µM is 87%.

In the case of `N=C(N)Nc1ccc(C(=O)Oc2ccc(CCC(=O)N[C@@H](CC(=O)O)C(=O)O)c(C3=NOC(CC(=O)O)(C(=O)O)C3)c2)cc1` (stereo partly drawn) [Example 18, N-(3-(4-((4-Carbamimidamidobenzoyl)oxy)-2-(5-carboxy-5-(carboxymethyl)-4,5-dihydro-1,2-oxazol-3-yl)phenyl)propanoyl)-L-aspartic acid trifluoroacetate], the inhibition at 3.3 µM was 100%.

With `N=C(N)Nc1ccc(C(=O)Oc2cc(CCC(=O)N[C@@H](CC(=O)O)C(=O)O)cc(C3=NOC(CC(=O)O)(C(=O)O)C3)c2)cc1` (stereo partly drawn) [Example 19, N-(3-(3-((4-carbamimidamidobenzoyl)oxy)-5-(5-carboxy-5-(carboxymethyl)-4,5-dihydro-1,2-oxazol-3-yl)phenyl)propanoyl)-L-aspartic acid], the inhibition at 3.3 µM is 101%.

Turning to `N=C(N)Nc1ccc(C(=O)Oc2ccc(CCC(=O)N[C@@H](CC(=O)O)C(=O)O)c(C3=NOC(CC(=O)O)(CC(=O)O)C3)c2)cc1` [Example 20, N-(3-(2-(5,5-bis(carboxymethyl)-4,5-dihydro-1,2-oxazol-3-yl)-4-((4-carbamimidamidobenzoyl)oxy)phenyl)propanoyl)-L-aspartic acid], the inhibition at 3.3 µM was 100%.

Turning to `N=C(N)Nc1ccc(C(=O)Oc2ccc(C3CCN(C(=O)CCC(=O)N[C@@H](CC(=O)O)C(=O)O)CC3)c(C3=NOC(CC(=O)O)(CC(=O)O)C3)c2)cc1` [Example 21, N-(4-(4-(2-(5,5-bis(carboxymethyl)-4,5-dihydro-1,2-oxazol-3-yl)-4-((4-carbamimidamidobenzoyl)oxy)phenyl)piperidin-1-yl)-4-oxobutanoyl)-L-aspartic acid], the inhibition at 3.3 µM amounted to 100%.

Take `N=C(N)Nc1ccc(C(=O)Oc2ccc(C3CCN(CCC(=O)O)CC3)c(C3=NOC(CC(=O)O)(CC(=O)O)C3)c2)cc1` [Example 22, 3-(4-(2-(5,5-Bis(carboxymethyl)-4,5-dihydro-1,2-oxazol-3-yl)-4-((4-carbamimidamidobenzoyl)oxy)phenyl)piperidin-1-yl)propanoic acid ditrifluoroacetate]: the inhibition at 3.3 µM was 101%.

Take `N=C(N)Nc1ccc(C(=O)Oc2cc(CCC(=O)N[C@@H](CC(=O)O)C(=O)O)cc(C3=NOC(CC(=O)O)(CC(=O)O)C3)c2)cc1` [Example 23, N-(3-(3-(5,5-bis(carboxymethyl)-4,5-dihydro-1,2-oxazol-3-yl)-5-((4-carbamimidamidobenzoyl)oxy)phenyl)propanoyl)-L-aspartic acid]: the inhibition at 3.3 µM was determined as 100%.

In the case of `N=C(N)Nc1ccc(C(=O)Oc2ccc(CCC(=O)O)c(C3=NOC(CC(=O)O)(CC(=O)O)C3)c2)cc1` [Example 24, 3-(2-(5,5-bis(carboxymethyl)-4,5-dihydro-1,2-oxazol-3-yl)-4-((4-carbamimidamidobenzoyl)oxy)phenyl)propanoic acid], the inhibition at 3.3 µM worked out at 100%.

On to `N=C(N)Nc1ccc(C(=O)Oc2ccc(CCC(=O)N3CCS(=O)(=O)CC3)c(C3=NOC(CC(=O)O)(CC(=O)O)C3)c2)cc1` [Example 25, 2,2′-(3-(5-((4-Carbamimidamidobenzoyl)oxy)-2-(3-(1,1-dioxidothiomorpholin-4-yl)-3-oxopropyl)phenyl)-4,5-dihydro-1,2-oxazole-5,5-diyl)diacetic acid], for which the inhibition at 3.3 µM stood at 100%.

In the case of `N=C(N)Nc1ccc(C(=O)Oc2ccc(CCC(=O)N3CCOCC3)c(C3=NOC(CC(=O)O)(CC(=O)O)C3)c2)cc1` [Example 26, 2,2′-(3-(5-((4-carbamimidamidobenzoyl)oxy)-2-(3-(morpholin-4-yl)-3-oxopropyl)phenyl)-4,5-dihydro-1,2-oxazole-5,5-diyl) diacetic acid], the inhibition at 3.3 µM was 100%.
